Laboratory results taken from paper PMC5859250, “Contribution of transformation products towards the total herbicide toxicity to tropical marine organisms” (Scientific Reports, 2018).
In brackets after ≈: the same amount, converted by molar mass. Entries after “also recorded” stand apart in the source; their conditions may differ.

Assays:
Symbiodinium sp. = assay: Microalgal PAM fluorometry assay, inhibition of ∆F/Fm′ (24 h, 96-well plate); format: cell-based; conditions: for LOEC, effect on ∆F/Fm′ / NOEC, effect on ∆F/Fm′: pure transformation product, ANOVA p < 0.05
Excerpt: Microalgae play a critical role in the marine food web and have been used in a number of sensitive assays for the assessment of toxicity of both herbicides and their transformation products[13],[16],[60]. High throughput 96 well plate designs allow for increased replication and a wide range of concentrations especially when paired with pulse amplitude modulation (PAM) fluorometry[50],[61]. PAM fluorometry measures chlorophyll fluorescence and can be used to calculate inhibitions of effective quantum yield ∆F/Fm′, which is proportional to reduced photosynthetic efficiency[62] and growth in microalgae[63] and can be plotted against toxicant concentrations to derive concentrations that inhibit ∆F/Fm′ by 10, 20 and 50% (IC10, IC20 and IC50). In the present study the green algae (Dunaliella sp.) and coral symbiont (Symbiodinium sp.) were exposed to herbicides and aged herbicide solutions for 24 h in a 96-well plate format. A Maxi-Imaging-PAM (I-PAM) (Walz, GmbH Germany) was used to measure inhibition of ∆F/Fm′ using settings provided previously[36] and below.
Symbiodinium cells were isolated from coral by air blasting branches of Acropora tenuis colonies collected (collected under the permit G10-33440.1) at 2–5 m depth in Nelly Bay, Magnetic Island, GBR[36]. Symbiodinium cells were inoculated into sterile IMK growing media, the culture purified, DNA extracted, and Clade C1 identified as published previously[64],[65]. Cultures were maintained at 26 °C, 60 µE PAR, 14:10 light:dark photoperiod inside environmental chambers (Steridium e500). The Dunaliella sp. (CS-353) (Chlorophyceae) was obtained from the CSIRO Collection of Living Microalgae (CCLM). The algae was subcultured and grown in F2 media. For the toxicology assays, an exponentially growing culture was employed[63] and density adjusted by hemocytometry under 10× magnification. Day 7 sub-cultures were used throughout the experiment.
Herbicide solutions were delivered into each treatment plate using a Perkin Elmer Janus liquid handling system. Each well of the black 96-well plates (Perkin Elmer) received 100 µl herbicide solution as well as 100 µl of algal suspension (added via multi-channel pipette) and the solution was gently mixed. […] Each plate included a 3 µg l^−1 positive diuron control (n = 4) to confirm consistent sensitivities among the replicate algal subcultures. Treatments positions were randomised across the plates in duplicate[50],[61],[66]. Symbiodinium culture plates were incubated over a 12:12 h light:dark cycle at 26 °C and 60–70 µmol photons m^−2 s^−1 and Dunaliella sp. Plates incubated at: 26 °C and 130 µmol photons m^−2 s^−1. Microalgae were exposed for 24 h prior to PAM measurements. Samples were subjected to the 50 µmol photons m^−2 s^−1 actinic light for 1 min prior to measurement in the Maxi-IPAM (Actinic light = 1, ML = 10, ML frequency = 8, gain = 2 and damping = 1).
(§1) The model was constrained by applying a lower limit of 0% inhibition and all curves were tested for normality of the residuals and a replicate test was applied to assess the goodness of fit[36]. The probability that ICX values generated by the logistic curves were statistically different between parent and aged herbicide solutions was tested by applying the F test in Graph Pad Prism v6. ICXs were considered different when p < 0.05. Where inhibition data could not be fitted to logistic curves, one-way analysis of variance (ANOVA) was performed to identify treatments which caused significant (p < 0.05) inhibition comparison with control treatments (NCSS v9, Utah, USA). The larval prawn experimental data was arcsine square root transformed prior to statistical analysis.

Brachionus calyciflorus = tested on: Brachionus calyciflorus; design: method as in PMID 1722733; conditions: cited from earlier work
[1] = tested on: prawn (Penaeus monodon) larvae; assay: Prawn larvae assay, metamorphosis of nauplii into protozoea (24 h static); format: in vivo
Experimental: The giant tiger prawn (Penaeus monodon) can be found throughout the tropical Indo-Pacific region and can be obtained from aquaculture facilities and has a well-described life cycle. The aim of the larval prawn assay was to determine whether the herbicides and transformation products inhibit early naupliar development. Prawn eggs hatch into their first larval stage (nauplii), typically 12–15 h after spawning. During development the nauplii are lecithotrophic, and over the course of the next 36 h, nauplii pass through 6 sub-stages before metamorphosing into protozoae[67],[68].
Freshly hatched nauplii were harvested by light attraction over 30 min, and washed and aerated for 10 min with seawater, and transported to AIMS in Townsville, Queensland. […] The toxicity assays were performed in incubator shakers (set to 30 °C) under very low light and with gentle shaking to prevent individuals adhering to the side of experimental containers.
The larval stock was gently concentrated via reverse-gravity filtration to a higher density before dispensing 8–10 individuals per 20 ml glass scintillation vials. Additional positive control treatments in the form of 4 concentrations of copper II chloride solution (2 to 900 µg l^−1 Cu), were included for test validation. The static assay was terminated after 24 h and 10% seawater formalin was added as a preservative for later microscopy. Metamorphosis was considered successful when nauplii had developed into protozoea.
as §1

Brachionus plicatilis = tested on: Brachionus plicatilis; design: method as in PMID 1722733; conditions: cited from earlier work
Hyalella azteca = tested on: Hyalella azteca; design: method as in PMID 19533344; conditions: cited from earlier work
Diporeia spp. = tested on: Diporeia spp.; design: method as in PMID 19533344; conditions: cited from earlier work
[2] = tested on: Phaeodactylum tricornutum; design: method as in PMID 20800855; conditions: cited from earlier work
Cylindrotheca closterium = tested on: Cylindrotheca closterium; design: method as in PMID 20800855; conditions: cited from earlier work
Navicula sp. = tested on: Navicula sp.; design: method as in PMID 20800855; conditions: cited from earlier work
Nephroselmis pyriformis = tested on: Nephroselmis pyriformis; design: method as in PMID 20800855; conditions: cited from earlier work
[3] = 24 h, vs solvent control, ANOVA p < 0.05, aged solutions as concentration of parent herbicide
[4] = Penaeus monodon (giant tiger prawn), in vivo, 24 h

SMILES | Inhibition of ∆F/Fm′ (in words) (Symbiodinium sp.; Symbiodinium sp., concentrations up to 273 µg l^−1) | LOEC, effect on ∆F/Fm′ (Symbiodinium sp.; Symbiodinium sp.) | NOEC, effect on ∆F/Fm′ (Symbiodinium sp.; Symbiodinium sp.) | LC50 (Brachionus calyciflorus) | LOEC, prawn larval metamorphosis [1, 3] | NOEC, prawn larval metamorphosis [1, 3] | LC50 (Brachionus plicatilis) | 96-hour LC50 (Hyalella azteca) | Inhibition of ∆F/Fm′ (Symbiodinium sp.; Symbiodinium sp., 458 µg l^−1) | 96-hour LC50 (Diporeia spp.) | LOEC, prawn larval metamorphosis [1, 4] | Effect on prawn larval metamorphosis (in words) ([1]; in vivo) | IC10 [2] | IC10 (Cylindrotheca closterium) | IC10 (Navicula sp.) | IC20 (Symbiodinium sp.; 24 h, read-out: IC20 parent (inhibition of ∆F/Fm′ by 20%)) | IC10 parent (inhibition of ∆F/Fm′ by 10%) (Symbiodinium sp.; Symbiodinium sp., 24 h, pure compound) | Inhibition of ∆F/Fm′ (Symbiodinium sp.; Symbiodinium sp., evident at 84 µg l^−1) | IC10 (Nephroselmis pyriformis)
Nc1ccc(Cl)c(Cl)c1 [3,4-DCA, 3,4-dichloroaniline] | no significant inhibition; also recorded: did not inhibit ∆F/Fm′ | >273.41 µg/L | 273.41 µg/L | ~ 60 mg l^−1 | 188 µg/L | 54 µg/L | ~ 60 mg l^−1 | – | – | – | – | – | – | – | – | – | – | – | –
CCNc1nc(N)nc(Cl)n1 [DIA, desisopropylatrazine] | – | >458.31 µg/L | 458.31 µg/L | – | – | – | – | > 3 µg/mL | < 8% | > 3 µg/mL | 3.5 µg/L | significantly inhibiting metamorphosis at all concentrations tested | – | – | – | – | – | – | –
CC(C)Nc1nc(N)nc(Cl)n1 [DEA, desethylatrazine] | – | 83.68 µg/L | 55.63 µg/L | – | – | – | – | – | – | – | 3.8 µg/L | significantly inhibiting metamorphosis at all concentrations tested | 0.046 µg/mL (≈ 0.245 µM) | 0.102 µg/mL (≈ 0.544 µM) | 0.111 µg/mL (≈ 0.592 µM) | 0.218 µg/mL (≈ 1.16 µM) | 103 (93–115) µg l^−1 | 9–35% | 0.0266 µg/mL (≈ 0.142 µM)
